Experimental data as given in paper PMC10046946, “Novel Phthalic-Based Anticancer Tyrosine Kinase Inhibitors: Design, Synthesis and Biological Activity” (Current Issues in Molecular Biology, 2023).

Experiments:
[1] = system: RPMI 1788 cells (B lymphocyte, human); test: MTT cell proliferation assay, normal RPMI 1788 cells; format: cell-based; details: normal human lymphoblastoid cells RPMI 1788, 72 h of exposition, read-out: Anti-proliferative activity IC50, RPMI 1788
In short: (§1)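 Normal human RPMI 1788 B cells accompany the cancer panel to flag general cytotoxicity. Viability is quantified with MTT and summarised as IC50.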

[2] = system: cancer cell lines (K562, HL-60, MCF-7, HepG2, A549, OKP-GS); test: MTT cell proliferation assay, statements over the whole cell line panel; format: cell-based; details: statement over the cell line panel, studied concentration range up to 50 µM
Experimental: Tests to determine the effects of the synthesized compounds on cell viability and the half-maximal inhibitory concentration (IC50) were performed using the MTT assay, as described in our prior work.
The target compounds 5, 6, 8–12, 14, 15, 17–22 and 24–26 were tested for antiproliferative activity against six cancer cell lines: K562 (chronic myelogenous leukemia), HL-60 (promyelocytic leukemia), MCF-7 (breast adenocarcinoma), HepG2 (human liver cancer), A549 (lung carcinoma) and OKP-GS (renal cell carcinoma). The RPMI 1788 cells (B lymphocyte, human) were used as a control to evaluate the system toxicity of the studied compounds to normal cells. Sorafenib, nilotinib and lapatinib were utilized as reference standards for comparison.

[3] = system: A549 (lung carcinoma); test: MTT cell proliferation assay, A549; format: cell-based; details: Homo sapiens, A549, 72 h of exposition, read-out: Anti-proliferative activity IC50, A549
In short: as §1

[4] = system: MCF-7 (breast adenocarcinoma); test: MTT cell proliferation assay, MCF-7; format: cell-based; details: Homo sapiens, MCF7, MCF-7, 72 h of exposition, read-out: Anti-proliferative activity IC50, MCF-7
In short: as §1

[5] = system: K562 (chronic myelogenous leukemia); test: MTT cell proliferation assay, K562; format: cell-based; details: Homo sapiens, K562, 72 h of exposition, read-out: Anti-proliferative activity IC50, K562
In short: as §1

[6] = system: HL-60 (promyelocytic leukemia); test: MTT cell proliferation assay, HL-60; format: cell-based; details: Homo sapiens, HL-60, 72 h of exposition, read-out: Anti-proliferative activity IC50, HL-60
In short: as §1

[7] = system: HepG2 (human liver cancer); test: MTT cell proliferation assay, HepG2; format: cell-based; details: Homo sapiens, HepG2, 72 h, HepG2, 72 h of exposition, read-out: Anti-proliferative activity IC50, HepG2
In short: as §1

[8] = system: OKP-GS (renal cell carcinoma); test: MTT cell proliferation assay, OKP-GS; format: cell-based; details: 72 h of exposition, read-out: Anti-proliferative activity IC50, OKP-GS
In short: as §1

[9] = target: T1, Aurora A (Homo sapiens, UniProt O14965); test: ADP-Glo kinase assay, Aurora A; format: biochemical
T1 construct: purchased Promega
T1 sequence (O14965 1-403): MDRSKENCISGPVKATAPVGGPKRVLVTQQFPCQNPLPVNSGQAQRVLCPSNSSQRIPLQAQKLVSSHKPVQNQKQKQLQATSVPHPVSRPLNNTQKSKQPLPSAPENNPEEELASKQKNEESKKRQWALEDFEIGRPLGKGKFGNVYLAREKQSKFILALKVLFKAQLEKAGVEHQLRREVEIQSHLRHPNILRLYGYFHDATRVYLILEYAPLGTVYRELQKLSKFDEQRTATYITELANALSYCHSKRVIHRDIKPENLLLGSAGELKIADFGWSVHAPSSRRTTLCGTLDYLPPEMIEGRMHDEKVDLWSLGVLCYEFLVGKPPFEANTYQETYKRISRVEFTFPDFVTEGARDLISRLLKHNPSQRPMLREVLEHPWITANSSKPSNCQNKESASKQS
In short: (§2)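 Inhibition measured by ADP-Glo luminescence using the Kinase Selectivity Profiling System TK-1 (tyrosine kinases) and Other/CK-1 (serine/threonine kinases), run per the kit manual.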

[10] = target: T2, KDR (VEGFR-2) (Homo sapiens, UniProt P35968); test: ADP-Glo kinase assay, KDR; format: biochemical
T2 construct: purchased Promega
Source text: (§4) The selectivity of the potential kinase inhibitor against a specific protein kinase or a specific family of kinases was investigated using the Kinase Selectivity Profiling System TK-1, Other/CK-1 and ADP-Glo™ Kinase assay kit (Promega, Madison, WI, USA).

[11] = target: T3, PDGFRα (Homo sapiens, UniProt P16234); test: ADP-Glo kinase assay, PDGFRα; format: biochemical
T3 construct: purchased Promega
In short: (§3)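 Selectivity profiling employed a commercial tyrosine kinase panel coupled to ADP-Glo detection, following the supplied technical manual, with activity measured by luminescence.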

[12] = system: K562 cells; test: Annexin V-FITC/PI apoptosis assay; format: cell-based; details: 48 h
Experimental: K562 tumor cells were plated on a 6-well plate at a density of 400,000 per well. Test compounds 5, 14 and 15 were added at concentrations of 1, 5 and 10 μM in duplicate for 48 h. The methodology and analysis of the obtained data were performed as described in our prior work.
The effects of compounds 5, 14 and 15 on cell apoptosis were examined using the Annexin V-FITC Kit (Beckman Coulter, Brea, CA, USA) according to the protocols provided. The Annexin V-FITC Kit is an apoptosis detection kit based on the binding properties of annexin V to phosphatidylserine (PS) and on the DNA intercalating capability of propidium iodide (PI). K562 cells were treated with compound 5, 14 and 15 at 1, 5 and 10 μM for 48 h, after which annexin V/PI binding was measured by flow cytometry.

[13] = target: T4, PDGFRβ (Homo sapiens, UniProt P09619); test: ADP-Glo kinase assay, PDGFRβ; format: biochemical
T4 construct: purchased Promega
In short: as §3

[14] = target: T5, HER4 (Homo sapiens, UniProt Q15303); test: ADP-Glo kinase assay, HER4; format: biochemical
T5 construct: purchased Promega
In short: as §3

[15] = target: T6, EGFR (Homo sapiens, UniProt P00533); test: ADP-Glo kinase assay, EGFR; format: biochemical
T6 construct: purchased Promega
Source text: as §4

[16] = system: K562 cell line; test: ROS determination (DCFH-DA, flow cytometry); format: cell-based; details: 48 h
Experimental: The redox status was assessed using the K562 cell line. […] Then, the cells were washed to remove the 2′,7′-dichlorodihydrofluorescein diacetate by centrifugation at 1000 rpm for 5 min. The measurements were conducted using a Cytomics FC500 Beckman Coulter flow cytometer (FL1 channel for DCF).

[17] = target: T7, InsR (insulin receptor) (Homo sapiens, UniProt P06213); test: ADP-Glo kinase assay, InsR; format: biochemical
T7 construct: purchased Promega
In short: as §3

[18] = target: T8, HER2 (Homo sapiens, UniProt P04626); test: ADP-Glo kinase assay, HER2; format: biochemical
T8 construct: purchased Promega
In short: as §3

[19] = target: T9, Aurora B (Homo sapiens, UniProt Q96GD4); test: ADP-Glo kinase assay, Aurora B; format: biochemical
T9 construct: purchased Promega
In short: as §2

[20] = system: K562 cells; test: Cell cycle analysis (propidium iodide, flow cytometry); format: cell-based; details: 48 h
Experimental: Tumor cells were seeded on a 6-well plate at a density of 400,000 per well for K562. Test compounds 5, 14 and 15 were added at concentrations of 1, 5 and 10 μM in duplicate for 48 h. The methodology and analysis of the obtained data were performed as described in our prior work.
As shown above, compounds 5, 14 and 15 had significant antiproliferative activities, which is why their influences on the cell cycle and apoptosis level were determined, with the aim of understanding whether these effects are cytostatic or cytotoxic. In the cell cycle experiments, K562 cells were used. […] For the determination of changes in the distribution of cells in the phases of the cell cycle, the widely employed method of staining the cells with propidium iodide was used.

[21] = target: T10, IGF1R (insulin-like growth factor 1 receptor) (Homo sapiens, UniProt P08069); test: ADP-Glo kinase assay, IGF1R; format: biochemical
T10 construct: purchased Promega
In short: as §3

T4 sequence (P09619 33-1106): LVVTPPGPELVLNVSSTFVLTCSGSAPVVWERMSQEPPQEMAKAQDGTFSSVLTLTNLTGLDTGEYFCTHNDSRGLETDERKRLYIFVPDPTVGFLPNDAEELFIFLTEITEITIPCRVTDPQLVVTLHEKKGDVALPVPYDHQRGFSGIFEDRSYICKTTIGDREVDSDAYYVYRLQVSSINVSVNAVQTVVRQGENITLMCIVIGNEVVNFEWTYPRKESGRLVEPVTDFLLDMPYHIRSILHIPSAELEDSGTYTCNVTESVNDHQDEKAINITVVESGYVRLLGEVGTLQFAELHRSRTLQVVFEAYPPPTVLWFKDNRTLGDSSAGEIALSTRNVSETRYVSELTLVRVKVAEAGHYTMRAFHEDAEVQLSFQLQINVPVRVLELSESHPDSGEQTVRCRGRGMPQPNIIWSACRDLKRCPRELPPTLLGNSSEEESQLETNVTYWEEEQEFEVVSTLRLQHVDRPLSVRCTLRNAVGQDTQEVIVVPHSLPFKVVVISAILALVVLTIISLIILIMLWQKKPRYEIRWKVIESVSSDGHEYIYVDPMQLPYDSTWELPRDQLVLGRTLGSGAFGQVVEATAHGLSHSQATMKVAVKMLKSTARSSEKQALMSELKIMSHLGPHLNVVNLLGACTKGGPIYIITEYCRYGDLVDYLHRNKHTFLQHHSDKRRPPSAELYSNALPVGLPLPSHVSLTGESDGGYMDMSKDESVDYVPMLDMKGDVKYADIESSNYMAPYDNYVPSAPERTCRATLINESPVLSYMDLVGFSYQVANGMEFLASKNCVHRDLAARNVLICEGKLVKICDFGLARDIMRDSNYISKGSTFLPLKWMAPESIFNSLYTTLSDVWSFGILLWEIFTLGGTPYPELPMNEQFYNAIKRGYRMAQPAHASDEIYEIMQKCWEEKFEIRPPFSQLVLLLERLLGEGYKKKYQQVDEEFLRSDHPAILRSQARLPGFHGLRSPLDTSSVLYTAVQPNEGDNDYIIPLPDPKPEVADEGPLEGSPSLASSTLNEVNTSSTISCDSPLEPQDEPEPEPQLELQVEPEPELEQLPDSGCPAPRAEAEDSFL
T3 sequence (P16234 24-1089): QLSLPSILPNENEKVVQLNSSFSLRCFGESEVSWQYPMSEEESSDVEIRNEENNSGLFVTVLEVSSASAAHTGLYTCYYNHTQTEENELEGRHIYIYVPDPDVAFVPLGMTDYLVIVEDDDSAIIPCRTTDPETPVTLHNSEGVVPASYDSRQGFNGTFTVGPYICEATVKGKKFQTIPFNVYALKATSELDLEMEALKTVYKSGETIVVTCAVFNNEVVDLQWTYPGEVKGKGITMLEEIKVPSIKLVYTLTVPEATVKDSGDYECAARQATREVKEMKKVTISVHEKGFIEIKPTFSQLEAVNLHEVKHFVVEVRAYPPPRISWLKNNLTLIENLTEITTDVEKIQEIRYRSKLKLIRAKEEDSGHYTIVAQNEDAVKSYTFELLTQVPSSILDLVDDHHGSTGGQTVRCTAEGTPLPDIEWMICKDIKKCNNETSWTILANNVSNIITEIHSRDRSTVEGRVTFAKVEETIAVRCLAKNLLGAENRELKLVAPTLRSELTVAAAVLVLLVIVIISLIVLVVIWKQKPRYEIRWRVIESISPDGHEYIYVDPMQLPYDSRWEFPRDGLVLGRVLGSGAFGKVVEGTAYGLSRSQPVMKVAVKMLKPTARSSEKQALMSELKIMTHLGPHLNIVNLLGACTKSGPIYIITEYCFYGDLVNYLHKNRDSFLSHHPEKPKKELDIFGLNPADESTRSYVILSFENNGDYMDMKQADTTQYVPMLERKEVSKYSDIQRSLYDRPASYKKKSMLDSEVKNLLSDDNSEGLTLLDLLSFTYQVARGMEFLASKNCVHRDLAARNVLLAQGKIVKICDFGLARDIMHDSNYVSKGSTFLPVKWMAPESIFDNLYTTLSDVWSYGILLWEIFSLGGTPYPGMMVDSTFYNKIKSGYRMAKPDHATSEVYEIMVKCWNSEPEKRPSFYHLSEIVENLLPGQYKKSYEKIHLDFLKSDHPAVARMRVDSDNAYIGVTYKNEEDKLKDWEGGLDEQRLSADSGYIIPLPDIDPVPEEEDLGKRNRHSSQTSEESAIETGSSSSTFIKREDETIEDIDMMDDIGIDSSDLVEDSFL
T5 sequence (Q15303 26-1308): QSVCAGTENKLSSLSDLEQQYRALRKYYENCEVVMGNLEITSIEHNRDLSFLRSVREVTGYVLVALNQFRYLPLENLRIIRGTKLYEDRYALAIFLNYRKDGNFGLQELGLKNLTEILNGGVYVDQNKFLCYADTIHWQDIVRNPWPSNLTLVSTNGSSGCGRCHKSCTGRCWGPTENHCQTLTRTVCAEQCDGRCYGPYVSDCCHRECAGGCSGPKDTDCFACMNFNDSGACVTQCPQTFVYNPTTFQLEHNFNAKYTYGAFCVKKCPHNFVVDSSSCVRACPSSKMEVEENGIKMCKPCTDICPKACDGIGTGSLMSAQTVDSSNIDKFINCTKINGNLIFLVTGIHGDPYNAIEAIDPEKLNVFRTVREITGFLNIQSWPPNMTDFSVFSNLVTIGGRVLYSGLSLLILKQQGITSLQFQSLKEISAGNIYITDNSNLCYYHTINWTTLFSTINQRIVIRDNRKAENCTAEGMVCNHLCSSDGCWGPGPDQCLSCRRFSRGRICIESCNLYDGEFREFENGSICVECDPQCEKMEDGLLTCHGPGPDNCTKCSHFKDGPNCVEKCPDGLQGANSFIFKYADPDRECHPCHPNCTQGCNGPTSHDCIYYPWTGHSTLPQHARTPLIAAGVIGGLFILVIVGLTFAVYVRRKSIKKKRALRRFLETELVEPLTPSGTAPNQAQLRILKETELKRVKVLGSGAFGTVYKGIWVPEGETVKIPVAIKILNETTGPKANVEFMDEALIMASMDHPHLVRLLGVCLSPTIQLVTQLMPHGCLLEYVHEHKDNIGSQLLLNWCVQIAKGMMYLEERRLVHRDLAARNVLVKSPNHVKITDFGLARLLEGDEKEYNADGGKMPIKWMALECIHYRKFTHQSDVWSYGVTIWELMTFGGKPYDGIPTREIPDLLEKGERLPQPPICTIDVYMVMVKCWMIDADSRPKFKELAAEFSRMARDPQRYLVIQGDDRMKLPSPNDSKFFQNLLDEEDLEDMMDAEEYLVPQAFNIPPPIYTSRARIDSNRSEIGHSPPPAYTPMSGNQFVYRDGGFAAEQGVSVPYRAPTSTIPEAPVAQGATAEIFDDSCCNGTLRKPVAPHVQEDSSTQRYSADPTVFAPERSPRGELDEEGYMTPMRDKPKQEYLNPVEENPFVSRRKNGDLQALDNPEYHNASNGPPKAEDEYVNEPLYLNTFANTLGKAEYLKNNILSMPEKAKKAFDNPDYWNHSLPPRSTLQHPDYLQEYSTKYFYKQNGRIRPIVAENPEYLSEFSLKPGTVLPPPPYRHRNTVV
T6 sequence (P00533 25-1210): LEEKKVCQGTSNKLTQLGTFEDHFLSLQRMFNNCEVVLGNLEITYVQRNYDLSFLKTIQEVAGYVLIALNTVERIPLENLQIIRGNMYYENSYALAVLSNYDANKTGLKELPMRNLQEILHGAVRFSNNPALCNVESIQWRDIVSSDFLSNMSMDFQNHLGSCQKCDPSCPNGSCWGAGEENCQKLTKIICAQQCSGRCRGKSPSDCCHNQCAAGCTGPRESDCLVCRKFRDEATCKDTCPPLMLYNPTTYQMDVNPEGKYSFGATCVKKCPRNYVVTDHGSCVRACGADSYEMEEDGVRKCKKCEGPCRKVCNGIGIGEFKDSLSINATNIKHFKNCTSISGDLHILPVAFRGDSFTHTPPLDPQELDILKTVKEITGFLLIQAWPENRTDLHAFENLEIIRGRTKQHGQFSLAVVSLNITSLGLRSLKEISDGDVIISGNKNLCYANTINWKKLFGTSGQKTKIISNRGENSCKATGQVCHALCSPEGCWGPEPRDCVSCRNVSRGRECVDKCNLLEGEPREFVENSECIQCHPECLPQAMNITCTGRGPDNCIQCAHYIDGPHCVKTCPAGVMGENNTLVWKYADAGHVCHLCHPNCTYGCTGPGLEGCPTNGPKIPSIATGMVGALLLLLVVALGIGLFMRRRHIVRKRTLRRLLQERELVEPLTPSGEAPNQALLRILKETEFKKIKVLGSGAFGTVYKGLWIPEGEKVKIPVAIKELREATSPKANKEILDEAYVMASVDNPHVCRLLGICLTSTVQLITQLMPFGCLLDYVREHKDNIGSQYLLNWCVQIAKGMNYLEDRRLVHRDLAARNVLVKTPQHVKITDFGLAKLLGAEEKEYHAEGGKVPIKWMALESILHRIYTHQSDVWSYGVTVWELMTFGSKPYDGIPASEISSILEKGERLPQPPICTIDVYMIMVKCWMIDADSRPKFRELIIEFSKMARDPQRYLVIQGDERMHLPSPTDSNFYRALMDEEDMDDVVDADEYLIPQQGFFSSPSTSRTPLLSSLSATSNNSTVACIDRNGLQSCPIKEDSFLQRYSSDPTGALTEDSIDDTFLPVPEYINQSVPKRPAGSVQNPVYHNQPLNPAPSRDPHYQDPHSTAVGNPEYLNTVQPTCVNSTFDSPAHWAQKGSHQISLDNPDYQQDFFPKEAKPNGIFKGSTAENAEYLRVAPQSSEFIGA
T9 sequence (Q96GD4 whole entry): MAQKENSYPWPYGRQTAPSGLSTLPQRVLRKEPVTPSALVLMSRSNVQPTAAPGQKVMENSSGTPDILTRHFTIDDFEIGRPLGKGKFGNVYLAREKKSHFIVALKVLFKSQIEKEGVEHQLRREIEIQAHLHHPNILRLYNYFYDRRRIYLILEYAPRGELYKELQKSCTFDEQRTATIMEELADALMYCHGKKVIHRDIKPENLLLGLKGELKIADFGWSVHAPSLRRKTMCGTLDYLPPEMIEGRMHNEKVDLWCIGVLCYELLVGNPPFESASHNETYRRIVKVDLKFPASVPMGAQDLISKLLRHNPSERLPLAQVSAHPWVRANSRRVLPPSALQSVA

## CNC(=O)c1cc(Oc2ccc(NC(=O)c3cccc(C(=O)Nc4cccc(C(F)(F)F)c4)c3)cc2)ccn1 [Compound 6, N1-(4-((2-(methylcarbamoyl)pyridin-4-yl)oxy)phenyl)-N3-(3-(trifluoromethyl)phenyl)isophthalamide]
[1]
  IC50: 13 ± 2.99 µM
[2]
  Antiproliferative activity (IC50) over the studied cell cultures: lack of sensitivity of the cancer cells in the studied concentration range
[3]
  IC50: > 50 µM
[4]
  IC50: 41.1 ± 5.06 µM
[5]
  IC50: > 50 µM
[6]
  IC50: > 50 µM
[7]
  IC50: > 50 µM
other
  melting point: 258 to 260 °C
[8]
  IC50: > 50 µM

## Cc1cn(-c2cc(NC(=O)c3cccc(C(=O)Nc4cc([N+](=O)[O-])ccc4C)c3)cc(C(F)(F)F)c2)cn1 [Compound 12, N1-(3-(4-methyl-1H-imidazol-1-yl)-5-(trifluoromethyl)phenyl)-N3-(2-methyl-5-nitrophenyl)isophthalamide]
[1]
  IC50: 2.36 ± 1.13 µM
[2]
  Antiproliferative activity (IC50) over the studied cell cultures: lack of sensitivity of the cancer cells in the studied concentration range
[3]
  IC50: > 50 µM
[4]
  IC50: > 50 µM
[5]
  IC50: > 50 µM
[6]
  IC50: > 50 µM
[7]
  IC50: > 50 µM
other
  melting point: 290 to 292 °C
[8]
  IC50: 27.5 ± 2.58 µM

## CNC(=O)c1cc(Oc2ccc(NC(=O)c3cccc(C(=O)Nc4cc(-n5cnc(C)c5)cc(C(F)(F)F)c4)c3)cc2)ccn1 [Compound 11, N1-(3-(4-methyl-1H-imidazol-1-yl)-5-(trifluoromethyl)phenyl)-N3-(4-((2-(methylcarbamoyl)pyridin-4-yl)oxy)phenyl)isophthalamide]
[1]
  IC50: 21.9 ± 0.44 µM
[2]
  Antiproliferative activity (IC50) over the studied cell cultures: lack of sensitivity of the cancer cells in the studied concentration range
[3]
  IC50: > 50 µM
[4]
  IC50: > 50 µM
[5]
  IC50: > 50 µM
[6]
  IC50: > 50 µM
[7]
  IC50: > 50 µM
other
  melting point: 313 to 315 °C
[8]
  IC50: 26.5 ± 3.65 µM

## Cc1cn(-c2cc(NC(=O)c3ccc(C)c(Nc4nccc(-c5cccnc5)n4)c3)cc(C(F)(F)F)c2)cn1 [Nilotinib, reference compound]
[1]
  IC50: 19.32 ± 0.09 µM
[2]; read-out: Antiproliferative activity (IC50) over the studied cell cultures
  IC50: 2 to 27 µM
[3]
  IC50: > 50 µM
[4]
  IC50: 4.2 ± 0.14 µM
[5]
  IC50: < 0.1 µM
[6]
  IC50: 22.7 ± 4.76 µM
[7]
  IC50: 4.81 ± 0.21 µM
[8]
  IC50: 2.76 ± 0.06 µM

## Cc1cn(-c2cc(NC(=O)c3cccc(C(=O)N4CCN(C(=O)c5ccccc5F)CC4)c3)cc(C(F)(F)F)c2)cn1 [Compound 14, 3-(4-(2-Fluorobenzoyl)piperazine-1-carbonyl)-N-(3-(4-methyl-1H-imidazol-1-yl)-5-(trifluoromethyl)phenyl)benzamide]
[9]
  inhibition at 10 µM: 0%
[10]
  inhibition at 10 µM: 26%
[11]
  inhibition at 10 µM: 24%
[12]; K562, 1 µM
  normal live cells (living cells): 83.95%
[12]; K562, 5 µM
  normal live cells (living cells): 65.68%
[12]; K562, 10 µM
  normal live cells (living cells): 56.83%
[13]
  inhibition at 10 µM: 23%
[1]
  IC50: 26.6 ± 2.31 µM
[14]
  inhibition at 10 µM: 0%
[15]
  inhibition at 10 µM: 21%
[3]
  IC50: > 50 µM
[16]; K562, 5 µM
  ROS Level, % of Control: 92.84 % of Control
[16]; K562, 10 µM
  ROS Level, % of Control: 76.96 % of Control
[16]; K562, 20 µM
  ROS Level, % of Control: 71.90 % of Control
[4]
  IC50: 27.3 ± 0.16 µM
[5]
  IC50: 7.71 ± 2.84 µM
[6]
  IC50: 32.5 ± 1.5 µM
[7]
  IC50: 44.1 ± 4.19 µM
[17]
  inhibition at 10 µM: 0%
other
  melting point: 135 to 138 °C
[18]
  inhibition at 10 µM: 14%
[19]
  inhibition at 10 µM: 7%
[20]; K562, 1 µM
  Apoptosis, % (cell cycle analysis): 14.28%
  G1, %: 32.65%
  G2/M, %: 46.95%
  S, %: 20.41%
[20]; K562, 5 µM
  Apoptosis, % (cell cycle analysis): 25.10%
  G1, %: 27.58%
  G2/M, %: 55.16%
  S, %: 17.25%
[20]; K562, 10 µM
  Apoptosis, % (cell cycle analysis): 38.02%
  G1, %: 31.21%
  G2/M, %: 51.08%
  S, %: 17.71%
[8]
  IC50: > 50 µM
[21]
  inhibition at 10 µM: 0%
